Measured values taken from patent publication US20240024233A1, “Oral Hydrogel Compositions and Uses” (Colgate-Palmolive Company, priority 2020, published 2024).
Values after ≈ are worked out from the molar mass of the structure shown.

Experiments:
[1] = test system: Actinomyces viscosus (ATCC #43146) and Streptococcus oralis (ATCC #35037); experiment: Viability via SIKT with degraded oral gel; assay type: cell-based; details: for percentage of cells that are viable relative to PBS control: n = 6
Text: For viability via SIKT, the same gel degradation procedure as described above is used to treat an overnight culture of Actinomyces viscosus (ATCC #43146) and Streptococcus oralis (ATCC #35037). […] Samples are then processed and the results are presented as a percentage of cells that are viable relative to a control sample treated with PBS alone (negative control).

[2] = Tetrahydrocurcumin solubility (saturation) in hydrogel formulations, UV 280 nm; assay type: physicochemical; details: 4 °C, aqueous with cosolvent or surfactant or cyclodextrin, thermodynamic from solid; tested gels
Experimental: Tetrahydrocurcumin is a highly insoluble drug. It has water solubility of about 6 μg/mL, and this has severely limited attempts to evaluate its in vitro or in vivo potency as a drug because of the difficulty of formulating compositions which can effectively deliver it to body tissues. It is thus a useful reference for compositions intended to deliver low-solubility active agents.
A range of hydrogel formulations are prepared in cold (4° C.) deionized water. Each cold formulation liquid is loaded with tetrahydrocurcumin (0.3 mg/mL of gel) via dispersion with a Speed Mixing apparatus (FlackTek, Inc). Samples are left to interact at 4° C. for 48 hours. Formulations are centrifuged at 10,000 rpm for 60 seconds to separate undissolved active. The saturation of active is determined via UV absorbance at 280 nm.
Tetrahydrocurcumin is found to be soluble in the above tested gels at the following saturation concentrations: […]

[3] = in water; cited from earlier work

SMILES | percentage of cells that are viable relative to PBS control, Average ([1]; Average of Day 0-28, n = 24) [%] | percentage of cells that are viable relative to PBS control ([1]; Day 0, 30 seconds treatment) [%] | percentage of cells that are viable relative to PBS control ([1]; Day 7, 30 seconds treatment) [%] | percentage of cells that are viable relative to PBS control ([1]; Day 14, 30 seconds treatment) [%] | percentage of cells that are viable relative to PBS control ([1]; Day 28, 30 seconds treatment) [%] | solubility at 48 h [2] [µg/mL] | water solubility [3]
CCO [Ethanol] | 16.3 | 16.8 | 14.5 | 14.7 | 19.0 | – | –
COc1cc(CCC(=O)CC(=O)CCc2ccc(O)c(OC)c2)ccc1O [Tetrahydrocurcumin] | – | – | – | – | – | 85 to 236 (≈ 228 to 634 µM) | about 6 μg/mL
